According to patent US20100137388A1, “Therapeutic Pro-Antibiotic Agents and Methods of Use Thereof” (priority 2007, published 2010):
In brackets after ≈: the same amount, converted by molar mass.

Experiments:
E. coli LpxA = E. coli LpxA (Escherichia coli, UniProt P0A722); experiment: LpxA enzyme inhibition (TLC of radiolabeled UDP-GlcNAc acylation); assay type: biochemical; settings: percentage of control, lower is better; for remaining activity at 500 µM (stock) / % LpxA activity (500 μM): test compound dilution 500 μM; for remaining activity at 5000 µM (stock) / % LpxA activity (5 mM): test compound dilution 5 mM
Method: Measurement of LpxA activity was based on increased mobility of radiolabeled UDP-N-acetyl-D-glucosamine on thin layer chromatography (TLC) plates upon acylation. One μl of test compound of appropriate dilution in ethanol was mixed with 2.5 μM β-hydroxy-myristoyl-ACP and 0.5 μM E. coli LpxA in 1% bovine serum albumin and 40 mM Na-Hepes (pH 8.0) at room temperature (total volume 8 μl). The reaction was initiated by adding 2 μl of UDP-[^3H]N-acetyl-D-glucosamine and aliquots were removed at various time intervals and spotted directly on silica gel G plates.
The procedure as given above was followed, with the appropriate dilutions of test compound being 5 mM and 500 μM.

[1] = system: E. coli D22 mutant strain; experiment: Antibiotic MIC, NCCLS M7-A6 broth microdilution; assay type: cell-based; settings: range tested 1 μM-2 mM
Method: (§1) Susceptibilities to the compounds were determined using the National Committee for Clinical Laboratory Standards (NCCLS) M7-A6 broth microdilution method. Cation-adjusted Mueller-Hinton broth (Ca^2+, 25 μg/mL; Mg^2+, 12.5 μg/mL) microdilution panels were prepared to contain antimicrobial doubling dilution concentrations of an appropriate range. DMSO (dimethylsulfoxide) controls were incorporated into the panel to mimic the quantity of DMSO used in dissolving some of the compounds at the higher concentrations. Each final panel well volume was 100 μL with a bacterial inoculum of 5×10^5 CFU (colony forming units)/mL. Panels were read following 16 to 20 h of incubation at 35 degrees Celsius in ambient air. The MIC (minimum inhibitory concentration) was defined as the lowest concentration of antimicrobial inhibiting visible growth.
(§2) Procedure followed was as described above, with the appropriate range being 1 μM-2 mM and using the E. coli D22 mutant strain and the E. coli K12 wild type strain. Value recorded was the lowest concentration of compound needed to produce the bactericidal or bacteriostatic effect (lower is better): […]

[2] = system: E. coli K12 wild type strain; experiment: Pro-antibiotic MIC of antibiotic agents alone and with DNM0195; assay type: cell-based; settings: antibiotic agent alone
Method: as §1, with “DMSO (dimethylsulfoxide) controls were incorporated into the panel to mimic the quantity of DMSO used in dissolving some of the compounds at the higher concentrations.” left out
Following Example 24, MICs of various antibiotic agents were determined against the E. coli K12 wild type strain, using the same procedure with the appropriate range for each antibiotic. For erythromycin, gentamicin, and kanamycin, this range was 0.24 μg/mL-500 μg/mL. Parallel to this effort, solutions were prepared which were identical. To each of these were added 0.5 μL of DNM0195 stock solution and mixed to produce a final concentration of 500 μM for determination of pro-antibiotic activity.

[3] = system: E. coli K12 wild type strain; experiment: Antibiotic MIC, NCCLS M7-A6 broth microdilution; assay type: cell-based; settings: range tested 1 μM-2 mM
Method: as §1, §2

mice = settings: mouse, in vivo
[4] = Escherichia coli, read-out: MIC

Sequence of E. coli LpxA (P0A722 whole entry): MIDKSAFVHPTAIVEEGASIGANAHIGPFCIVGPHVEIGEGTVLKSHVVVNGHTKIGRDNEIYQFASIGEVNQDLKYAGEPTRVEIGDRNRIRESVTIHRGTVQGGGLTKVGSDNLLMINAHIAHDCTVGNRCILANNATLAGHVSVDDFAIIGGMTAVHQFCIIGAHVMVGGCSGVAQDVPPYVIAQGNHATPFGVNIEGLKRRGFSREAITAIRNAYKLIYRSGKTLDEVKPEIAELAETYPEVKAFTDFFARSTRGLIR

Compound	remaining activity at 500 µM (stock) (E. coli LpxA) [%]	remaining activity at 5000 µM (stock) (E. coli LpxA) [%]	further results
O=C(O)C(=Cc1cc(-c2nnn[nH]2)c(Cc2ccccc2)s1)C(=O)O [DNM0264, 2-((5-benzyl-4-(1H-tetrazol-5-yl)thiophen-2-yl)methylene)malonic acid]	56.8	5.4	–
O=C(O)/C=C/c1sc(-c2ccc(-c3ccccc3)cc2)cc1-c1nnn[nH]1 [DNM0245, (E)-3-(5-(biphenyl-4-yl)-3-(1H-tetrazol-5-yl)thiophen-2-yl)acrylic acid]	78.5	4.4	–
COC(=O)/C=C/c1sc(-c2ccc(F)cc2)cc1-c1nnn[nH]1 [DNM0229, (E)-methyl 3-(5-(4-fluorophenyl)-3-(1H-tetrazol-5-yl)thiophen-2-yl)acrylate]	57.8	4	–
O=C(O)/C=C/c1cc(-c2nnn[nH]2)c(-c2ccc(-c3ccccc3)cc2)s1 [DNM0225, (E)-3-(5-(4-biphenylyl)-4-(1H-tetrazol-5-yl)thiophen-2-yl)acrylic acid]	84.9	7.3	–
COC(=O)/C=C/c1cc(-c2nnn[nH]2)c(-c2cccc3ccccc23)s1 [DNM0234, (E)-methyl 3-(5-(naphthalen-1-yl)-4-(1H-tetrazol-5-yl)thiophen-2-yl)acrylate]	92.1	1.1	–
Cn1nnc(-c2cc(/C=C/C(=O)O)sc2Cc2ccccc2)n1 [DNM0197, (E)-3-(5-benzyl-4-(2-methyl-2H-tetrazol-5-yl)thiophen-2-yl)acrylic acid]	62.4	20.2	–
COC(=O)/C=C/c1cc(-c2nnnn2C)c(Cc2ccccc2)s1 [DNM0227, (E)-methyl 3-(5-benzyl-4-(1-methyl-1H-tetrazol-5-yl)thiophen-2-yl)acrylate]	92.1	86.6	–
O=C(O)/C=C/c1cccc(Cc2sc(/C=C/C(=O)O)cc2-c2nnn[nH]2)c1 [DNM0270, (E)-3-(3-((5-((E)-2-carboxyvinyl)-3-(1H-tetrazol-5-yl)thiophen-2-yl)methyl)phenyl)acrylic acid]	89.7	3	–
COC(=O)/C=C/c1sc(-c2ccc(-c3ccccc3)cc2)cc1-c1nnn[nH]1 [DNM0240, (E)-methyl 3-(5-(4-biphenyl)-3-(1H-tetrazol-5-yl)thiophen-2-yl)acrylate]	–	–	% LpxA activity (500 μM) (E. coli LpxA): 90.7%; % LpxA activity (5 mM) (E. coli LpxA): 6.6%
COC(=O)/C=C/c1cc(-c2nnn[nH]2)c(Cc2ccccc2)s1 [DNM0194, (Z) and (E)-methyl 3-(5-benzyl-4-(1H-tetrazol-5-yl)thiophen-2-yl)acrylate]	–	–	% LpxA activity (500 μM) (E. coli LpxA): 36.0%; % LpxA activity (5 mM) (E. coli LpxA): 1.4%; MIC [1]: 1000 to 2000 µM
Gentamicin	–	–	MIC [2]: 0.39 µg/mL
O=C(O)/C=C/c1cc(-c2nnn[nH]2)c(-c2ccc(F)cc2)s1 [DNM0224, (E)-3-(5-(4-fluorophenyl)-4-(1H-tetrazol-5-yl)thiophen-2-yl)acrylic acid]	88.7	37.9	–
Cn1nnnc1-c1cc(-c2ccc(F)cc2)sc1/C=C/C(=O)O [DNM0233, (E)-3-(5-(4-fluorophenyl)-3-(1-methyl-1H-tetrazol-5-yl)thiophen-2-yl)acrylic acid]	98.8	47.3	–
COC(=O)/C=C/c1cc(-c2nnn(C)n2)c(Cc2ccccc2)s1 [DNM0226, (E)-methyl 3-(5-benzyl-4-(2-methyl-2H-tetrazol-5-yl)thiophen-2-yl)acrylate]	97	93	–
Cn1nnnc1-c1cc(/C=C/C(=O)O)sc1Cc1ccccc1 [DNM0196, (E)-3-(5-benzyl-4-(1-methyl-1H-tetrazol-5-yl)thiophen-2-yl)acrylic acid]	43.9	5.8	–
O=C(O)/C=C/c1cc(-c2nnn[nH]2)c(-c2cccc3ccccc23)s1 [DNM0235, (E)-3-(5-(naphthalen-1-yl)-4-(1H-tetrazol-5-yl)thiophen-2-yl)acrylic acid]	59.6	7.3	–
O=C1NC(=O)C(=Cc2sc(Cc3ccccc3)cc2-c2nnn[nH]2)S1 [DNM0246, 5-((5-benzyl-3-(1H-tetrazol-5-yl)thiophen-2-yl)methylene)thiazolidine-2,4-dione]	165	10.3	–
O=C(O)/C=C/c1cc(-c2nnn(CCC(=O)O)n2)c(Cc2ccccc2)s1 [DNM0252, (E)-3-(5-benzyl-4-(2-(2-carboxyethyl)-2H-tetrazol-5-yl)thiophen-2-yl)acrylic acid]	62.9	5.1	–
CC[C@H]1OC(=O)[C@H](C)[C@@H](O[C@H]2C[C@@](C)(OC)[C@@H](O)[C@H](C)O2)[C@H](C)[C@@H](O[C@@H]2O[C@H](C)C[C@H](N(C)C)[C@H]2O)[C@](C)(O)C[C@@H](C)C(=O)[C@H](C)[C@@H](O)[C@]1(C)O [Erythromycin]	–	–	MIC [2, 4]: 62.5 µg/mL
NC[C@H]1O[C@H](O[C@H]2[C@H](O)[C@@H](O[C@H]3O[C@H](CO)[C@@H](O)[C@H](N)[C@H]3O)[C@H](N)C[C@@H]2N)[C@H](O)[C@@H](O)[C@@H]1O [Kanamycin]	–	–	MIC [2, 4]: 3.12 µg/mL
O=C(O)/C=C/c1cc(-c2nnn[nH]2)c(Cc2ccccc2)s1 [DNM0195, (Z) and (E)-3-(5-benzyl-4-(1H-tetrazol-5-yl)thiophen-2-yl)acrylic acid]	–	–	% LpxA activity (500 μM) (E. coli LpxA): 7.6%; % LpxA activity (5 mM) (E. coli LpxA): 3.1%; MIC [1]: 1000 µM (≈ 312 µg/mL); MIC [3]: 1000 to 2000 µM; Liver biopsies (mice): normal
COC(=O)/C=C/c1sc(Cc2ccccc2)cc1-c1nnn[nH]1 [DNM0243, (E)-methyl 3-(5-benzyl-3-(1H-tetrazol-5-yl)thiophen-2-yl)acrylate]	69.2	0.9	–
